Assay results as given in PubChem BioAssay (NCI).
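Cultured in 96-well plates, cells were exposed to test compound for 48 hours across five concentrations. GI50 marks 50% less growth. TGI denotes the concentration required for complete inhibition of growth.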

Key:
Assay in all cases: NCI anticancer screen, dose series, 48 h
HCT-15 colon = system: HCT-15 colon
IGROV1 ovarian = system: IGROV1 ovarian
OVCAR-3 ovarian = system: OVCAR-3 ovarian
SK-MEL-28 melanoma = system: SK-MEL-28 melanoma
UACC-257 melanoma = system: UACC-257 melanoma
OVCAR-4 ovarian = system: OVCAR-4 ovarian
A498 renal = system: A498 renal

SMILES	TGI (HCT-15 colon)	TGI (IGROV1 ovarian)	TGI (OVCAR-3 ovarian)	TGI (SK-MEL-28 melanoma)	TGI (UACC-257 melanoma)	TGI (OVCAR-4 ovarian)	TGI (A498 renal)	GI50 (A498 renal)	GI50 (OVCAR-3 ovarian)	GI50 (SK-MEL-28 melanoma)	GI50 (UACC-257 melanoma)	GI50 (IGROV1 ovarian)	GI50 (OVCAR-4 ovarian)
O=C(NC1CCCCC1)NS(=O)(=O)c1ccc2c(c1)CCC2	> 100 µM	> 100 µM	> 100 µM	> 100 µM	> 100 µM								
CCN(CC)CC1c2ccccc2C(CNc2ccccc2)N1C (stereo not given)	> 100 µM	> 100 µM	> 100 µM	> 100 µM	> 100 µM	> 100 µM							
N#CC(=C1C=CC(=NO)C=C1)c1ccc(Cl)cc1	49.6 µM	56.1 µM	13.2 µM	37.9 µM		60.4 µM	> 100 µM						
CC(=O)CN(Cc1cc(C)c2c(c1)c1ccccc1n2Cc1ccccc1)S(=O)(=O)c1ccc(C)cc1		> 100 µM	> 100 µM	> 100 µM	> 100 µM	> 100 µM							
Cc1ccc2c(C3Cc4ccccc4N3C(=O)/C=C\C(=O)O)c(C)[nH]c2c1 (stereo not given)	72.5 µM	> 100 µM	66.8 µM	> 100 µM	> 100 µM	> 100 µM	> 100 µM						
Fc1ccc(C2SCc3nc4ccccc4n32)c(F)c1 (stereo not given)	> 100 µM	> 100 µM	> 100 µM		> 100 µM	> 100 µM	> 100 µM						
COc1ccc(C=O)c([N+](=O)[O-])c1	> 100 µM	> 100 µM	> 100 µM	> 100 µM	> 100 µM	> 100 µM	> 100 µM						
CCCCCCCCCCCCCCCCCC1=NCCN1CCOC1=C(Cl)C(=O)c2ccccc2C1=O			3.34 µM	9.05 µM	3.3 µM		14.7 µM	3.92 µM	1.85 µM	3.31 µM	1.83 µM		
CC#CCC1CCC(OCC)=CC1=O (stereo not given)	> 100 µM	> 100 µM	> 100 µM	> 100 µM	> 100 µM	> 100 µM							
CC(=O)NC(CCCNC(=O)N(CCCl)N=O)C(=O)NCc1ccccc1 (stereo not given)	> 100 µM	> 100 µM	> 100 µM	> 100 µM	> 100 µM	> 100 µM							
Cc1ccc(-c2nnc(-c3nn(-c4ccccc4)c4nc5ccccc5nc34)o2)cc1	> 100 µM	41.7 µM	28.7 µM	> 100 µM	> 100 µM	8.79 µM							
O=C1OC(Cc2ccccc2)(N2CCCC2=O)C1c1ccccc1 (stereo not given)			> 100 µM	> 100 µM	> 100 µM	> 100 µM	> 100 µM						
CCOC(=O)C1C(=S)NC(=O)C1C#N (stereo not given)	> 100 µM	> 100 µM	> 100 µM	> 100 µM	> 100 µM	> 100 µM							
O=C1NC(=O)C2C(=O)NC(=O)C1C2c1c(Cl)cccc1Cl (stereo not given)	> 100 µM	> 100 µM	> 100 µM	> 100 µM	> 100 µM	> 100 µM	> 100 µM						
O=C1CC(c2c[nH]c3ccccc23)C(=O)N1 (stereo not given)	> 100 µM	> 100 µM	> 100 µM	> 100 µM	> 100 µM	> 100 µM	> 100 µM						
CC(=O)Nc1ccc(SC#N)c2c(NC(C)=O)cccc12	> 100 µM	> 100 µM	> 100 µM	> 100 µM	> 100 µM	> 100 µM	> 100 µM						
CCCP1(=O)C=C(C)C(=C(Cl)Cl)C(C)=C1 (stereo not given)	> 100 µM	> 100 µM	> 100 µM	> 100 µM	> 100 µM	> 100 µM	> 100 µM						
COc1cccc(OC)c1C(=O)OCc1ccccc1	> 100 µM	> 100 µM	> 100 µM	> 100 µM	> 100 µM	> 100 µM							
Clc1ccc(Nc2nc3ccccc3nc2-c2cccs2)cc1Cl	> 100 µM		> 100 µM	> 100 µM	> 100 µM								
CC(=O)C(CN(CC(C)C)CC(C)C)C(c1ccccc1)c1c(O)c2ccccc2oc1=O (stereo not given)	> 100 µM	> 100 µM	> 100 µM	> 100 µM	> 100 µM	> 100 µM	> 100 µM						
COc1cc(C(=O)C/C(CCC(=O)Nc2ccccc2[N+](=O)[O-])=N\NC(N)=O)ccc1O	> 100 µM	> 100 µM	> 100 µM	> 100 µM	> 100 µM		> 100 µM						
CCC(=O)C12OC3OC(C)(C)OC3C1OC(C)(C)O2 (stereo not given)		> 100 µM	> 100 µM	> 100 µM	> 100 µM	> 100 µM	> 100 µM						
CC1(O)C=CC(=O)C=C1	31.7 µM	70.2 µM	51.4 µM	38.5 µM	34.2 µM	> 91.1 µM	> 78.6 µM						
O=C1C(=C([O-])c2ccccc2)C(=O)c2ccccc21.O=C1C(=C([O-])c2ccccc2)C(=O)c2ccccc21.[Fe+2]		> 100 µM	> 100 µM	> 100 µM	> 100 µM	> 100 µM	> 100 µM	> 100 µM	89.5 µM	> 100 µM	> 100 µM	> 100 µM	> 100 µM
